Earlier results as cited in PMC11491004, “CHF6523 data suggest that the phosphoinositide 3-kinase delta isoform is not a suitable target for the management of COPD” (Respiratory Research, 2024).

Columns and labels:
airway inflammation = test system: airway inflammation; design: method as in ref 12 = [12]; 12. Blomqvist S Andreasson T Arlbrandt S Bold P Bjorhall K Brülls M In vivo dual Pi3kγδ inhibition in a rat model of pulmonary inflammation - evidence of local therapeutic activity Am J Respir Crit Ca; conditions: cited from earlier work
PI3Kδ [1] = biological target: T1, PI3Kδ (Homo sapiens, UniProt O00329); design: method as in ref 14 = [14]; 14. Wilson R Cahn A Montembault M Green J Musani N Begg M Safety, tolerability, pharmacokinetics (PK) and pharmacodynamics (PD) of single (SD) and repeat (RD) inhaled doses of a novel phosphoinositide; conditions: healthy volunteer study; Day 12; cited from earlier work
T1 sequence (O00329 whole entry): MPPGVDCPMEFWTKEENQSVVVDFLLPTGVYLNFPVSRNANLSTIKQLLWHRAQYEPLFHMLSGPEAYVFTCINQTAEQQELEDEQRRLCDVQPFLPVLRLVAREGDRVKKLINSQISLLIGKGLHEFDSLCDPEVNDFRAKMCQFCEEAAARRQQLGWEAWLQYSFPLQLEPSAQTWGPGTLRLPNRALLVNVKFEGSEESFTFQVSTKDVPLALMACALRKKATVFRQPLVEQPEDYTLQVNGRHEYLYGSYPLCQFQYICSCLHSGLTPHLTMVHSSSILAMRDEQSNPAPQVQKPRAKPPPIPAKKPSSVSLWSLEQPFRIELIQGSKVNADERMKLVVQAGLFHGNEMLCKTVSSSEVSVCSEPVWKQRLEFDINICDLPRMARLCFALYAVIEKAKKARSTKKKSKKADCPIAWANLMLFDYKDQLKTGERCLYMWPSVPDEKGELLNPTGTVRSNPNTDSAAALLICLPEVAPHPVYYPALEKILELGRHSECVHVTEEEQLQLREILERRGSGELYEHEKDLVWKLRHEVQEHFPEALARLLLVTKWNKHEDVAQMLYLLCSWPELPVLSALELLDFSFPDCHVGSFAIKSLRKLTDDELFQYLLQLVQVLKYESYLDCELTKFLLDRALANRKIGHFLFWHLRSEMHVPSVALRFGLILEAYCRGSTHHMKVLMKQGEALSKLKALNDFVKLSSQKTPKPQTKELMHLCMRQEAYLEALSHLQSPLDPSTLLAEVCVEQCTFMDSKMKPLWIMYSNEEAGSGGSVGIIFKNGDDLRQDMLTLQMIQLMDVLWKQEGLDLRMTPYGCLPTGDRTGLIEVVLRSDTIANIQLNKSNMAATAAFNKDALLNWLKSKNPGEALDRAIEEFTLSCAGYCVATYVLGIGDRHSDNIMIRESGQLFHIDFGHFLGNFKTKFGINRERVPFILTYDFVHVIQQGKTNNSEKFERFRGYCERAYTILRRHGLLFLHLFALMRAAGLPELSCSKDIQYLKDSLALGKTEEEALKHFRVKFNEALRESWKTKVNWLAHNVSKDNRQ
T1 sequence (P27986 whole entry partner): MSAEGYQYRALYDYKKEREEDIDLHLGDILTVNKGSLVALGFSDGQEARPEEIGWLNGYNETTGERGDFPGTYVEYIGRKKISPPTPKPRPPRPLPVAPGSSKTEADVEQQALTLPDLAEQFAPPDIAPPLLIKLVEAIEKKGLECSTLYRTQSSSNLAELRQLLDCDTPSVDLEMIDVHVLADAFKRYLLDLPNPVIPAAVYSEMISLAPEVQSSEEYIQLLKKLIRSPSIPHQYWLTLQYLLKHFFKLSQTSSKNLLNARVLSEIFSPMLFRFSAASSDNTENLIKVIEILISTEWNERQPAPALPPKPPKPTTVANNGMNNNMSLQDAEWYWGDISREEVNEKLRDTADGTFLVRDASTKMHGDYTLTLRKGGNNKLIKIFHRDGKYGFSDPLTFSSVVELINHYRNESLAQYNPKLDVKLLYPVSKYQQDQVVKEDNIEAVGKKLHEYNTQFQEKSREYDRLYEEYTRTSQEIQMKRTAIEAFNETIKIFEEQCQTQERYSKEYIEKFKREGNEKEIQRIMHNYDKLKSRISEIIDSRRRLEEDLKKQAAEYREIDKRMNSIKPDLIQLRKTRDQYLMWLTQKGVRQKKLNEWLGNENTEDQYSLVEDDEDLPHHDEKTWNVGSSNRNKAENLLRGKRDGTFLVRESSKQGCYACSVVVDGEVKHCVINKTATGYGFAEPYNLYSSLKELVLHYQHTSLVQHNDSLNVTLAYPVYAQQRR

[2] = design: method as in PMID 34113095; conditions: cited from earlier work
sputum IL-6 and IL-8 = test system: sputum IL-6 and IL-8; design: method as in PMID 28823947; conditions: patients with COPD; cited from earlier work
[3] = test system: sputum IL-5, IL-13, IL-6 or IL-8; design: method as in PMID 30217958; conditions: patients with asthma; cited from earlier work
PI3Kδ [4] = biological target: T1, PI3Kδ; design: from tissue; host or cells: induced sputum of COPD patients (in vivo dosing by inhalation); method as in PMID 30886125; conditions: healthy smokers; cited from earlier work
PI3Kδ [5] = biological target: T1, PI3Kδ; design: from tissue; host or cells: induced sputum of COPD patients (in vivo dosing by inhalation); method as in PMID 36841351; conditions: activated PI3Kδ syndrome; cited from earlier work

## Cc1nc(Nc2cccc(N3CCCC3=O)n2)sc1-c1cc2c(c(S(C)(=O)=O)c1)C(=O)N([C@@H](C)C1CC1)C2 [AZD8154]
Airway inflammation
  Efficacy in a rat model of airway inflammation: demonstrated efficacy

## CC(C)N1CCN(Cc2cnc(-c3cc(-c4cccc5[nH]ccc45)cc4[nH]ncc34)o2)CC1 [nemiralisib]
PI3Kδ [1]
  Reduction in PIP3: 35.7%
[2]; Phase IIb, patients with exacerbating COPD
  Primary and secondary endpoints: neither the primary nor secondary endpoints were met
[2]; experienced post-inhalation and dose-related
  Most common adverse event: cough
Sputum IL-6 and IL-8
  Sputum IL-6 and IL-8 levels compared to placebo: did not significantly reduce
[3]
  Sputum IL-5, IL-13, IL-6 or IL-8 compared to placebo: did not yield statistically significant reductions
PI3Kδ [4]
  Target engagement: demonstrated target engagement
PI3Kδ [5]
  Changes in target engagement or downstream inflammatory markers in induced sputum: no meaningful changes
